Earlier results in paper PMC7395068, “The evolution of strategies to minimise the risk of human drug-induced liver injury (DILI) in drug discovery and development” (Archives of Toxicology, 2020).
Read-outs that look alike come from different tables or passages of the source.

Columns and labels:
[1] = cited from earlier work
[2] = tested on: HepG2 C3A spheroid, BSEP, Glu/Gal in HepG2 cells, bioactivation; settings: cited from earlier work
[3] = tested on: THLE or HepG2 cells, isolated mitochondria, BSEP; settings: In vitro Assay; ref Aleo 2019; cited from earlier work
PHH = settings: In vitro Assay; ref Proctor 2017; cited from earlier work
hLiMTs = settings: In vitro Assay; ref Proctor 2017; cited from earlier work
[4] = ref Chen 2016; cited from earlier work
HepG2 cells [5] = settings: cited from earlier work; for Cluser analysis / Structural based (HCI): In vitro Assay, ref Persson 2013
[6] = tested on: THLE-Null and THLE-3A4 cells; settings: In vitro Assay; ref Gustafsson 2014; cited from earlier work
[7] = tested on: primary human hepatocytes, NIH3T3 fibroblasts, BSEP, CYP3A4; settings: In vitro Assay; ref Schadt 2015; cited from earlier work
rBsep = settings: In vitro Assay; ref Dawson 2012; cited from earlier work
HepG2 cells [8] = settings: In vitro Assay; ref O'Brien 2006; cited from earlier work
human hepatocytes = settings: In vitro Assay; ref Xu 2008; cited from earlier work
PHH spheroids = settings: In vitro Assay; ref Vorrink 2018; cited from earlier work
[9] = In vitro Assay, ref Williams 2019

CC(C)(C)NCC(O)c1ccc(O)c(CO)c1 (stereo not shown) [albuterol]
-VE: In vivo DILI ([1]; ref Aleo 2019) | In vivo DILI ([1]; ref Proctor 2017) | In vivo DILI ([1]; ref Williams 2019) | Bayesian Machine Learning ([2]; ref Williams 2019) | Partition Hybrid HRM Score [3] | Ro2 Hybrid HRM Score [3]

CN1[C@@H]2CC[C@H]1C[C@@H](OC(c1ccccc1)c1ccccc1)C2 [benztropine]
vNo-DILI-Concern: DILI severity category [4]
-VE: In vivo DILI ([1]; ref Aleo 2019) | In vivo DILI ([1]; ref Proctor 2017) | In vivo DILI ([1]; ref Williams 2019) | Bayesian Machine Learning ([2]; ref Williams 2019) | Ro2 Hybrid HRM Score [3] | DILI +VE (5-8), DILI -VE (-4) [4]
+VE (IC50 threshold of 100 µM): PHH ATP <100uM (PHH) | hLiMTs ATP <100uM (hLiMTs)

Nc1c(CC(=O)O)cccc1C(=O)c1ccc(Br)cc1 [bromfenac, reference compound]
-VE: Cluser analysis (HepG2 cells [5]) | Structural based (HCI) (HepG2 cells [5]) | THLE-Null [6] | THLE-Null/3A4 [6] | Cellular toxicity (3T3 cells) [7] | Combined Assay [7] | GSH adduct HML [7] | Hepatocyte cellular toxicity [7] | MitoTox 3T3 [7] | TDI CYP3A4 [7] | hBSEP inhibition [7]
negative: DILI in vitro assay prediction, Persson (2013) (HepG2 cells [5]; Structural based (HCI), HepG2, ref Persson et al. 2013)
vMost-DILI-Concern: DILI severity category [4]
+VE: In vivo DILI ([1]; […]) | In vivo DILI ([1]; ref Aleo 2019) | In vivo DILI ([1]; ref Gustafsson 2014) | In vivo DILI ([1]; ref Persson 2013) | In vivo DILI ([1]; ref Schadt 2015) | In vivo DILI ([1]; ref Williams 2019) | Bayesian Machine Learning [2, 9] | Partition Hybrid HRM Score [3] | Ro2 Hybrid HRM Score [3] | DILI +VE (5-8), DILI -VE (-4) [4]

N[C@@H]1CON=C1O [cycloserine]
-VE: Bayesian Machine Learning [2, 9] | Inhibition of rBsep cutoff<1& cmax u>.2 (rBsep) | Inhibition of rBsep cutoff<3 (rBsep) | THLE-Null [6]

O=C1[C@H](CC[C@H](O)c2ccc(F)cc2)[C@@H](c2ccc(O)cc2)N1c1ccc(F)cc1 [ezetimibe]
-VE: Bayesian Machine Learning [2, 9]
+VE: In vivo DILI ([1]; ref Williams 2019) | DILI +VE (5-8), DILI -VE (-4) [4]
vLess-DILI-Concern: DILI severity category [4]

Cc1onc(-c2c(F)cccc2Cl)c1C(=O)N[C@@H]1C(=O)N2[C@@H]1SC(C)(C)[C@@H]2C(=O)O [flucloxacillin]
+VE: In vivo DILI ([1]; ref Dawson 2012) | In vivo DILI ([1]; ref Gustafsson 2014) | In vivo DILI ([1]; ref Proctor 2017) | In vivo DILI ([1]; ref Williams 2019) | Bayesian Machine Learning [2, 9]
-VE: Inhibition of rBsep cutoff<1& cmax u>.2 (rBsep) | Inhibition of rBsep cutoff<3 (rBsep) | THLE-Null [6] | THLE-Null/3A4 [6] | hLiMTs ATP <100uM (hLiMTs)
+VE (IC50 threshold of 100 µM): PHH ATP <100uM (PHH)

Nc1nc(F)nc2c1ncn2[C@@H]1O[C@H](CO)[C@@H](O)[C@@H]1O [fludarabine]
vNo-DILI-Concern: DILI severity category [4]
-VE: PHH ATP <100uM (PHH) | In vivo DILI ([1]; ref Proctor 2017) | In vivo DILI ([1]; ref Williams 2019) | Bayesian Machine Learning [2] | DILI +VE (5-8), DILI -VE (-4) [4]
+VE (IC50 threshold of 100 µM): hLiMTs ATP <100uM (hLiMTs)

O=C(NC1CCN(CCc2c[nH]c3ccccc23)CC1)c1ccccc1 [indoramin]
-VE: PHH ATP <100uM (PHH) | In vivo DILI ([1]; ref Proctor 2017) | In vivo DILI ([1]; ref Williams 2019) | Bayesian Machine Learning ([2]; ref Williams 2019) | hLiMTs ATP <100uM (hLiMTs)

CCC(C)n1ncn(-c2ccc(N3CCN(c4ccc(OCC5COC(Cn6cncn6)(c6ccc(Cl)cc6Cl)O5)cc4)CC3)cc2)c1=O (stereo not shown) [itraconazole]
vMost-DILI-Concern: DILI severity category [4]
-VE: PHH ATP <100uM (PHH) | Cellular toxicity (3T3 cells) [7] | GSH adduct HML [7] | Hepatocyte cellular toxicity [7] | TDI CYP3A4 [7] | hBSEP inhibition [7]
+VE (IC50 threshold of 100 µM): hLiMTs ATP <100uM (hLiMTs)
+VE: Cluser analysis (HepG2 cells [5]) | Structural based (HCI) (HepG2 cells [5]) | In vivo DILI ([1]; ref O'Brien 2006) | In vivo DILI ([1]; ref Persson 2013) | In vivo DILI ([1]; ref Proctor 2017) | In vivo DILI ([1]; ref Schadt 2015) | In vivo DILI ([1]; ref Williams 2019) | Bayesian Machine Learning [2, 9] | Structural based (HCI) (HepG2 cells [8]) | Combined Assay [7] | MitoTox 3T3 [7] | DILI +VE (5-8), DILI -VE (-4) [4]

Cc1ccc(Cl)c(Nc2ccccc2C(=O)O)c1Cl [meclofenamate]
+VE: In vivo DILI ([1]; ref Xu 2008) | Bayesian Machine Learning ([2]; ref Williams 2019) | Structural based (HCI) (human hepatocytes)
-VE: In vivo DILI ([1]; ref Williams 2019)

COC(=O)C1=C(C)NC(C)=C(C(=O)OCCN(C)Cc2ccccc2)C1c1cccc([N+](=O)[O-])c1 (stereo not shown) [nicardipine]
-VE: Bayesian Machine Learning [2, 9] | hLiMTs ATP <20 x Cmax (PHH spheroids)

O=c1[nH]c2ccccc2n1C1CCN(CCCC(c2ccc(F)cc2)c2ccc(F)cc2)CC1 [pimozide]
vNo-DILI-Concern: DILI severity category [4]
-VE: PHH ATP <100uM (PHH) | In vivo DILI ([1]; ref O'Brien 2006) | Structural based (HCI) (HepG2 cells [8]) | DILI +VE (5-8), DILI -VE (-4) [4]
+VE: In vivo DILI ([1]; ref Proctor 2017) | In vivo DILI ([1]; ref Williams 2019) | Bayesian Machine Learning ([2]; ref Williams 2019)
+VE (IC50 threshold of 100 µM): hLiMTs ATP <100uM (hLiMTs)

Cc1c(C(=O)NN2CCCCC2)nn(-c2ccc(Cl)cc2Cl)c1-c1ccc(Cl)cc1 [rimonabant]
-VE: In vivo DILI ([1]; ref Gustafsson 2014) | In vivo DILI ([1]; ref Williams 2019)
+VE: Bayesian Machine Learning ([2]; ref Williams 2019) | THLE-Null [6] | THLE-Null/3A4 [6]

Cc1cc2c(cc1CC(=O)c1sccc1S(=O)(=O)Nc1onc(C)c1Cl)OCO2 [sitaxentan]
+VE: In vivo DILI ([1]; ref Aleo 2019) | In vivo DILI ([1]; ref Proctor 2017) | In vivo DILI ([1]; ref Schadt 2015) | In vivo DILI ([1]; ref Williams 2019) | Bayesian Machine Learning [2, 9] | Partition Hybrid HRM Score [3] | Ro2 Hybrid HRM Score [3] | Combined Assay [7] | GSH adduct HML [7] | Hepatocyte cellular toxicity [7] | TDI CYP3A4 [7] | hBSEP inhibition [7] | DILI +VE (5-8), DILI -VE (-4) [4]
vMost-DILI-Concern: DILI severity category [4]
-VE: PHH ATP <100uM (PHH) | Cellular toxicity (3T3 cells) [7] | MitoTox 3T3 [7] | hLiMTs ATP <100uM (hLiMTs)

Cc1cc(CC(=O)O)n(C)c1C(=O)c1ccc(Cl)cc1 [zomepirac]
+VE: In vivo DILI ([1]; […]) | In vivo DILI ([1]; ref Schadt 2015) | Bayesian Machine Learning [2, 9] | Structural based (HCI) (HepG2 cells [8]) | Combined Assay [7] | GSH adduct HML [7]
-VE: PHH ATP <100uM (PHH) | In vivo DILI ([1]; ref Gustafsson 2014) | In vivo DILI ([1]; ref O'Brien 2006) | In vivo DILI ([1]; ref Proctor 2017) | In vivo DILI ([1]; ref Williams 2019) | In vivo DILI ([1]; ref Xu 2008) | THLE-Null [6] | THLE-Null/3A4 [6] | Cellular toxicity (3T3 cells) [7] | Hepatocyte cellular toxicity [7] | MitoTox 3T3 [7] | TDI CYP3A4 [7] | hBSEP inhibition [7] | hLiMTs ATP <100uM (hLiMTs) | Structural based (HCI) (human hepatocytes)
